Results reported in ChEMBL document CHEMBL1201862, “PubChem BioAssay data set” (2004).
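Briefly, cells in 96-well plates were exposed to five compound concentrations for 48 h, and endpoints were estimated by linear interpolation. Here, GI50 denotes the concentration required for 50% inhibition of growth.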 Activity calls are given as the source filed them. No stated cut-off is given here; in the data, active = GI50 up to about 1.1 µM and inactive = higher.

What was measured:
Experiment in all cases: inhibition of tumour cell growth, NCI panel, 48 h
SNB-75 = tested on: SNB-75
MDA-N = tested on: MDA-N
SN12C = tested on: SN12C
Malme-3M = tested on: Malme-3M
MDA-MB-435 = tested on: MDA-MB-435
LOX IMVI = tested on: LOX IMVI
PC-3 = tested on: PC-3
HCC 2998 = tested on: HCC 2998
EKVX = tested on: EKVX
SK-OV-3 = tested on: SK-OV-3
RPMI-8226 = tested on: RPMI-8226
MCF7 = tested on: MCF7
CCRF-CEM = tested on: CCRF-CEM
HT-29 = tested on: HT-29
IGROV-1 = tested on: IGROV-1
NCI/ADR-RES = tested on: NCI/ADR-RES
Hs-578T = tested on: Hs-578T
A498 = tested on: A498
CAKI-1 = tested on: CAKI-1
HOP-62 = tested on: HOP-62

Compound	GI50 (SNB-75)	GI50 (MDA-N)	GI50 (SN12C)	GI50 (Malme-3M)	GI50 (MDA-MB-435)	GI50 (LOX IMVI)	GI50 (PC-3)	GI50 (HCC 2998)	GI50 (EKVX)	GI50 (SK-OV-3)	GI50 (RPMI-8226)	GI50 (MCF7)	GI50 (CCRF-CEM)	GI50 (HT-29)	GI50 (IGROV-1)	GI50 (NCI/ADR-RES)	GI50 (Hs-578T)	GI50 (A498)	GI50 (CAKI-1)	GI50 (HOP-62)
COc1cccc(N2C(=O)C3c4[nH]c5ccc(C)cc5c4C4CCC(C(C)(C)C)CC4C3C2=O)c1 (stereo not drawn)	2.51 µM (inactive)	> 10 µM (inactive)	3.15 µM (inactive)	> 10 µM (inactive)	> 10 µM (inactive)	2.43 µM (inactive)	4.43 µM (inactive)	4.11 µM (inactive)	4.84 µM (inactive)	> 10 µM (inactive)	4.06 µM (inactive)	2.99 µM (inactive)	2.77 µM (inactive)	4.08 µM (inactive)	> 10 µM (inactive)	3.51 µM (inactive)	3.19 µM (inactive)	> 10 µM (inactive)	9.84 µM (inactive)	> 10 µM (inactive)
Cc1ccc(NC(=O)CSc2nc(C)nc3c2sc(=S)n3-c2ccccc2)cc1	2.32 µM (inactive)	> 10 µM (inactive)	6.49 µM (inactive)	7.8 µM (inactive)	4.06 µM (inactive)	> 10 µM (inactive)	> 10 µM (inactive)	> 10 µM (inactive)	5.08 µM (inactive)	8.2 µM (inactive)	> 10 µM (inactive)	> 10 µM (inactive)	9.23 µM (inactive)	7.36 µM (inactive)	> 10 µM (inactive)	4.7 µM (inactive)	2.66 µM (inactive)	> 10 µM (inactive)	> 10 µM (inactive)	2.29 µM (inactive)
O/N=C\c1c(O)ccc2ccccc12	41.8 µM (inactive)	66.5 µM (inactive)	38.3 µM (inactive)	12.6 µM (inactive)	65 µM (inactive)	45.8 µM (inactive)	88.3 µM (inactive)	31.7 µM (inactive)	33 µM (inactive)	36.9 µM (inactive)	49.8 µM (inactive)	37.8 µM (inactive)	47.2 µM (inactive)	54.5 µM (inactive)		68.2 µM (inactive)	> 100 µM (inactive)	56.2 µM (inactive)	30.8 µM (inactive)	70.1 µM (inactive)
Cc1ccc2c(c1)c1ccc3c(c1n2C)C(=O)C=CC3=O	> 10 µM (inactive)	1.73 µM (inactive)	3.52 µM (inactive)	2 µM (inactive)	2.35 µM (inactive)	9.53 µM (inactive)	3.66 µM (inactive)	9.77 µM (inactive)	> 4.85 µM (inactive)	> 10 µM (inactive)	1.23 µM (inactive)	1.8 µM (inactive)	0.284 µM (active)	> 10 µM (inactive)	3.52 µM (inactive)	2.96 µM (inactive)	3.08 µM (inactive)	2.88 µM (inactive)	2.36 µM (inactive)	> 10 µM (inactive)
O=C1N/C(=N/N=C\c2ccccc2)N/C1=C/c1ccccc1	25.6 µM (inactive)	30.6 µM (inactive)	39.7 µM (inactive)	34.2 µM (inactive)	17.1 µM (inactive)	35.9 µM (inactive)	24.9 µM (inactive)	13.9 µM (inactive)	23.8 µM (inactive)	37.7 µM (inactive)	26.6 µM (inactive)	31.5 µM (inactive)	23.2 µM (inactive)	24.9 µM (inactive)	24.8 µM (inactive)	22.9 µM (inactive)	27.3 µM (inactive)	30.9 µM (inactive)	27.8 µM (inactive)	19.5 µM (inactive)
CCc1cc2c(cc1CCCC(=O)O)CC1(Cc3ccc(C(=O)O)cc3C1)C2 (stereo not drawn)	> 100 µM (inactive)	> 100 µM (inactive)	> 100 µM (inactive)	> 100 µM (inactive)	> 100 µM (inactive)	> 100 µM (inactive)	> 100 µM (inactive)	> 100 µM (inactive)	> 100 µM (inactive)	> 100 µM (inactive)	> 100 µM (inactive)	> 100 µM (inactive)	> 100 µM (inactive)	> 100 µM (inactive)	> 100 µM (inactive)	> 100 µM (inactive)	> 100 µM (inactive)	> 100 µM (inactive)	> 100 µM (inactive)	> 100 µM (inactive)
O=S(=O)(SC1=NCCN1)c1ccc2ccccc2c1	25.2 µM (inactive)	19.8 µM (inactive)	24.4 µM (inactive)	72.6 µM (inactive)	20.7 µM (inactive)	31.4 µM (inactive)	30.7 µM (inactive)	20.6 µM (inactive)	33.2 µM (inactive)	22.6 µM (inactive)	26.4 µM (inactive)	29.4 µM (inactive)	21 µM (inactive)	20 µM (inactive)	31 µM (inactive)	21.8 µM (inactive)	35.6 µM (inactive)	92.7 µM (inactive)	95.1 µM (inactive)	23.3 µM (inactive)
Cc1cc(C)c(S(=O)(=O)N(CCCN)OCCON(CCCN)S(=O)(=O)c2c(C)cc(C)cc2C)c(C)c1	3.42 µM (inactive)	2.74 µM (inactive)	7.87 µM (inactive)	1.93 µM (inactive)	3.89 µM (inactive)	2.44 µM (inactive)	1.73 µM (inactive)	1.9 µM (inactive)	5.24 µM (inactive)	5.01 µM (inactive)	2.05 µM (inactive)	2.59 µM (inactive)	2.71 µM (inactive)	10 µM (inactive)	1.97 µM (inactive)	22.1 µM (inactive)	2.67 µM (inactive)	19.5 µM (inactive)	26.2 µM (inactive)	3.01 µM (inactive)
NC(=O)N/N=C(/CC1C(=O)Oc2ccccc21)c1ccccc1O (stereo not drawn)	41.3 µM (inactive)	45.5 µM (inactive)	83.6 µM (inactive)	> 100 µM (inactive)	43.8 µM (inactive)	20.4 µM (inactive)	> 100 µM (inactive)	35 µM (inactive)	87.5 µM (inactive)	34.1 µM (inactive)	14.1 µM (inactive)	48.1 µM (inactive)	22.4 µM (inactive)	69 µM (inactive)	36.6 µM (inactive)	25.9 µM (inactive)	> 100 µM (inactive)	49.3 µM (inactive)	49 µM (inactive)	29 µM (inactive)
CCOCC(=O)N[C@H]1CCc2cc(OC)c(OC)c(OC)c2-c2ccc(OC)c(=O)cc21	< 0.0191 µM (active)	0.0122 µM (active)	0.0239 µM (active)	0.0229 µM (active)	0.0123 µM (active)	< 0.0125 µM (active)	< 0.0154 µM (active)	0.0141 µM (active)	> 15.8 µM (inactive)	0.111 µM (active)	0.0778 µM (active)	0.0207 µM (active)	0.0444 µM (active)	0.0146 µM (active)	0.0241 µM (active)	0.982 µM (active)	0.0203 µM (active)	0.0229 µM (active)	0.0577 µM (active)	0.0232 µM (active)
COC1C(O)CC(OC2CC(Oc3cc4cc5c(c(O)c4c(O)c3C)C(=O)[C@@H](OC3CC(OC4CC(OC6CC(C)(O)C(OC(C)=O)C(C)O6)C(O)C(C)O4)C(O)C(C)O3)[C@H]([C@H](OC)C(=O)[C@@H](O)[C@@H](C)O)C5)OC(C)C2OC(C)=O)OC1C (stereo partly drawn) [CHROMOMYCIN]	< 0.01 µM (active)	3.15e-05 µM (active)	0.0101 µM (active)	0.00328 µM (active)	2.44e-05 µM (active)	0.00348 µM (active)	3.57e-05 µM (active)	< 0.01 µM (active)	0.00532 µM (active)	0.00673 µM (active)	< 0.01 µM (active)	0.00312 µM (active)	< 0.01 µM (active)	< 0.01 µM (active)	0.0101 µM (active)	0.75 µM (active)	2.13e-05 µM (active)	0.0038 µM (active)	< 0.01 µM (active)	0.00355 µM (active)
COc1ccc(C(OCC2OC(n3cc(C)c(=O)[nH]c3=O)CC2n2cc(Cn3cc(Cl)c(=O)[nH]c3=O)nn2)(c2ccccc2)c2ccccc2)cc1 (stereo not drawn)	> 100 µM (inactive)	9.14 µM (inactive)	> 100 µM (inactive)	> 100 µM (inactive)	7.18 µM (inactive)	> 100 µM (inactive)	13.6 µM (inactive)	> 100 µM (inactive)	> 100 µM (inactive)	> 100 µM (inactive)	4.31 µM (inactive)	21.8 µM (inactive)	2.95 µM (inactive)	> 100 µM (inactive)	39.5 µM (inactive)	> 100 µM (inactive)	65 µM (inactive)	> 100 µM (inactive)	> 100 µM (inactive)	> 100 µM (inactive)
CC(C)CC(=O)OC[n+]1ccc(-c2c(COC(=O)NC(C)C)c(COC(=O)NC(C)C)c3n2CCC3)cc1	> 100 µM (inactive)	> 100 µM (inactive)	> 100 µM (inactive)	> 100 µM (inactive)	> 100 µM (inactive)	> 100 µM (inactive)	> 100 µM (inactive)	> 100 µM (inactive)	> 100 µM (inactive)	> 100 µM (inactive)	> 100 µM (inactive)	76.4 µM (inactive)	64.4 µM (inactive)	> 100 µM (inactive)	> 100 µM (inactive)	> 100 µM (inactive)	> 100 µM (inactive)	84.3 µM (inactive)	45.2 µM (inactive)	> 100 µM (inactive)
COC1CC(N)(c2ccccc2)C(O)C(C)O1 (stereo not drawn)	> 100 µM (inactive)	> 100 µM (inactive)	> 100 µM (inactive)	> 100 µM (inactive)	> 100 µM (inactive)	> 100 µM (inactive)	> 100 µM (inactive)	> 100 µM (inactive)	> 100 µM (inactive)	> 100 µM (inactive)	> 100 µM (inactive)	> 100 µM (inactive)	> 100 µM (inactive)		> 100 µM (inactive)	> 100 µM (inactive)	> 100 µM (inactive)	> 100 µM (inactive)	> 100 µM (inactive)	> 100 µM (inactive)
